According to ChEMBL document CHEMBL4373660, “The synthesis and biological evaluation of novel gardenamide A derivatives as multifunctional neuroprotective agents” (Medchemcomm, 2019):

Key:
[1] = Cytotoxicity against Sprague-Dawley rat cortical neuron assessed as cell survival at 3.7 uM incubated for 48 hrs by CellTiter Glo-based luminescence assay relative to control; parameters: species or system Cortical neurone; conditions: rat cortical neurons, read-out: Activity
Cortical neurone [2] = assay: (§1) Neuroprotective activity against OGD-induced neurotoxicity in Sprague-Dawley rat cortical neuron assessed as cell survival rate at 10 uM pretreated for 24 hrs followed by incubation in oxygen and glucose deprivation medium for 2 hrs followed by exposure to reoxygenation by re-incubating in normoxia condition for 24 hrs by MTT assay (reference value: 58.5 to 61.2 %); assay type: functional
Cortical neurone [3] = assay: as §1, with “0.1” for “10”; assay type: functional
[4] = Cytotoxicity against Sprague-Dawley rat cortical neuron assessed as cell survival at 33.3 uM incubated for 48 hrs by CellTiter Glo-based luminescence assay relative to control; parameters: species or system Cortical neurone; conditions: rat cortical neurons, read-out: Activity
[5] = Neuroprotective activity against H2O2-induced neurotoxicity in Sprague-Dawley rat hippocampal neuron assessed as cell survival rate at 0.1 uM incubated for 24 hrs in presence of 150 uM H2O2 by MTT assay (reference value: 41.6 to 43.2 %); assay type: functional, Hippocampal neurone
Hippocampal neurone [6] = assay: Neuroprotective activity against amyloid beta (1 to 42)-induced neurotoxicity in Sprague-Dawley rat hippocampal neuron assessed as increase in cell survival rate incubated for 48 hrs in presence of amyloid beta (1 to 42) by CellTiter Glo-based luminescence assay; assay type: functional
Hippocampal neurone [7] = assay: Neuroprotective activity against H2O2-induced neurotoxicity in Sprague-Dawley rat hippocampal neuron assessed as increase in cell survival rate incubated for 24 hrs in presence of 150 uM H2O2 by MTT assay; assay type: functional, cell-based
[8] = Cytotoxicity against Sprague-Dawley rat cortical neuron assessed as cell survival at 100 uM incubated for 48 hrs by CellTiter Glo-based luminescence assay relative to control; parameters: species or system Cortical neurone; conditions: rat cortical neurons, read-out: Activity
[9] = Neuroprotective activity against H2O2-induced neurotoxicity in Sprague-Dawley rat hippocampal neuron assessed as cell survival rate at 10 uM incubated for 24 hrs in presence of 150 uM H2O2 by MTT assay (reference value: 41.6 to 43.2 %); assay type: functional, Hippocampal neurone
[10] = Neuroprotective activity against H2O2-induced neurotoxicity in Sprague-Dawley rat hippocampal neuron assessed as cell survival rate at 1 uM incubated for 24 hrs in presence of 150 uM H2O2 by MTT assay (reference value: 41.6 to 43.2 %); assay type: functional, Hippocampal neurone
[11] = Cytotoxicity against Sprague-Dawley rat cortical neuron assessed as cell survival at 11.1 uM incubated for 48 hrs by CellTiter Glo-based luminescence assay relative to control; parameters: species or system Cortical neurone; conditions: rat cortical neurons, read-out: Activity
Cortical neurone [12] = assay: as §1, with “1” for “10”; assay type: functional

Row | SMILES | viability at 48 h, 3.7 µM [1] [%] | Activity (Cortical neurone [2]) [%] | Activity (Cortical neurone [3]) [%] | viability at 48 h, 33.3 µM [4] [%] | Activity [5] [%] | Activity (Hippocampal neurone [6]) | Activity (Hippocampal neurone [7]) | viability at 48 h, 100 µM [8] [%] | Activity [9] [%] | Activity [10] [%] | viability at 48 h, 11.1 µM [11] [%] | Activity (Cortical neurone [12]) [%]
1 | COC(=O)C1=CN(C(C)C)C(=O)[C@@H]2C(CN3CCN(Cc4ccccc4)CC3)=CC[C@H]12.Cl.Cl | 90.7 | 84.5 | 64.4 | 91.7 | 60.3 | Dose-dependent effect | Dose-dependent effect | 82.5 | 76.2 | 71 | 96.3 | 71.8
2 | COC(=O)C1=CN(C)C(=O)[C@@H]2C(CN3CCN(Cc4ccc(F)cc4)CC3)=CC[C@H]12.Cl.Cl | 98.4 | 85.7 | 63.8 | 85.1 | 62.5 | Dose-dependent effect | Dose-dependent effect | 78.5 | 78.5 | 70.3 | 96.2 | 71.3
3 | COC(=O)C1=CN(C)C(=O)[C@@H]2C(CN3CCN(Cc4cccc(OC)c4)CC3)=CC[C@H]12.Cl.Cl | – | 72.5 | 59.5 | – | – | – | – | – | – | – | – | 63.8
4 | COC(=O)C1=CN(C(C)C)C(=O)[C@@H]2C(CN3CCN(Cc4ccc(C)cc4)CC3)=CC[C@H]12.Cl.Cl | – | 85.7 | 59 | – | – | – | – | – | – | – | – | 73.1
5 | COc1cc2c(cc1OC)C(=O)C(CC1CCN(Cc3ccccc3)CC1)C2 (configuration not stated) [DONEPEZIL] | – | 85.9 | 65.5 | – | – | – | – | – | – | – | – | 72.3
6 | COC(=O)C1=CNC(=O)[C@@H]2C(CO)=CC[C@H]12 | – | 79.3 | 59 | – | 59 | – | – | – | 70.9 | 65.8 | – | 69.4
7 | COC(=O)C1=CN(C(C)C)C(=O)[C@@H]2C(CN3CCN(Cc4ccc(Cl)cc4)CC3)=CC[C@H]12.Cl.Cl | – | 71.9 | 58.7 | – | – | – | – | – | – | – | – | 64.3
8 | CC(=O)N[C@@H](CS)C(=O)O [ACETYLCYSTEINE] | – | – | – | – | 62.6 | – | – | – | 79.1 | 69.5 | – | –
9 | COC(=O)C1=CN(C(C)C)C(=O)[C@@H]2C(CN3CCN(Cc4cccc(OC)c4)CC3)=CC[C@H]12.Cl.Cl | – | 64 | 60.6 | – | – | – | – | – | – | – | – | 62.1
10 | COC(=O)C1=CN(C)C(=O)[C@@H]2C(CN3CCN(Cc4ccccc4)CC3)=CC[C@H]12.Cl.Cl | – | 72.3 | 58.6 | – | – | – | – | – | – | – | – | 63.7
11 | COC(=O)C1=CN(C)C(=O)[C@@H]2C(CN3CCN(Cc4ccc(C)cc4)CC3)=CC[C@H]12.Cl.Cl | – | 72.6 | 59 | – | – | – | – | – | – | – | – | 66.9
12 | COC(=O)C1=CN(C)C(=O)[C@@H]2C(CN3CCN(Cc4ccc([N+](=O)[O-])cc4)CC3)=CC[C@H]12.Cl.Cl | – | 74.3 | 60 | – | – | – | – | – | – | – | – | 66.7
13 | COC(=O)C1=CN(C)C(=O)[C@@H]2C(CN3CCN(Cc4cccc(C(F)(F)F)c4)CC3)=CC[C@H]12.Cl.Cl | – | 80.3 | 63.3 | – | – | – | – | – | – | – | – | 72.5
14 | COC(=O)C1=CN(C(C)C)C(=O)[C@@H]2C(CN3CCN(Cc4cccc(C)c4)CC3)=CC[C@H]12.Cl.Cl | – | 84.8 | 59 | – | – | – | – | – | – | – | – | 71.3
15 | COC(=O)C1=CN(C(C)C)C(=O)[C@@H]2C(CN3CCN(Cc4ccc(C(F)(F)F)cc4)CC3)=CC[C@H]12.Cl.Cl | – | 85.7 | 59.1 | – | – | – | – | – | – | – | – | 71.6
16 | COC(=O)C1=CN(C(C)C)C(=O)[C@@H]2C(CN3CCN(Cc4ccc(F)cc4)CC3)=CC[C@H]12.Cl.Cl | 94.2 | 86.5 | 65.4 | 88.4 | 60.4 | Dose-dependent effect | Dose-dependent effect | 80.9 | 72.4 | 67.3 | 98.4 | 74.4
17 | COC(=O)C1=CN(C)C(=O)[C@@H]2C(CN3CCN(Cc4ccc(C(F)(F)F)cc4)CC3)=CC[C@H]12.Cl.Cl | – | 80.9 | 63 | – | – | – | – | – | – | – | – | 72.2
18 | COC(=O)C1=CN(C(C)C)C(=O)[C@@H]2C(CN3CCN(Cc4ccc([N+](=O)[O-])cc4)CC3)=CC[C@H]12.Cl.Cl | 97.2 | 87.6 | 67.1 | 88.7 | 57.6 | Dose-dependent effect | Dose-dependent effect | 78.5 | 82.1 | 73.8 | 99.7 | 74.3
19 | COC(=O)C1=CN(C(C)C)C(=O)[C@@H]2C(CN3CCN(Cc4cccc(C(F)(F)F)c4)CC3)=CC[C@H]12.Cl.Cl | – | 85.5 | 58.7 | – | – | – | – | – | – | – | – | 71.6
20 | COC(=O)C1=CN(C)C(=O)[C@@H]2C(CN3CCN(Cc4ccc(Cl)cc4)CC3)=CC[C@H]12.Cl.Cl | – | 80.1 | 62.7 | – | – | – | – | – | – | – | – | 71
21 | COC(=O)C1=CN(C)C(=O)[C@@H]2C(CN3CCN(Cc4cccc(C)c4)CC3)=CC[C@H]12.Cl.Cl | – | 71.9 | 60.8 | – | – | – | – | – | – | – | – | 66.7
